Test results taken from the supplement of paper PMC10307832.

Legend:
Experiment in all cases: relative viability (nuclei count vs DMSO), 5 days (fraction); higher = more cells survive
VX-11e + Olaparib = compound: CC1=CN=C(N=C1C2=CNC(=C2)C(=O)N[C@H](CO)C3=CC(=CC=C3)Cl)NC4=C(C=C(C=C4)F)Cl [VX-11e] + O=C(c1cc(Cc2n[nH]c(=O)c3ccccc23)ccc1F)N1CCN(C(=O)C2CC2)CC1 [Olaparib] (partner 8 µM)
Procedure, shortened: (§1)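 For relative viability, nuclei counts in treated wells were divided by those in vehicle wells. Lung cancer cell lines had been pin-tool dosed in 1536-well plates the day after seeding and cultured for 5 days, then fixed and stained in one step (final 0.05% Triton X-100, 1% formaldehyde, 1 ug/ml Hoechst) and imaged at 4×. Doses were one drug alone or a fixed anchor-drug dose plus five library-drug doses (not always all listed) in √10 steps, and values are duplicate-plate medians.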

VX-11e + Linsitinib = compound: CC1=CN=C(N=C1C2=CNC(=C2)C(=O)N[C@H](CO)C3=CC(=CC=C3)Cl)NC4=C(C=C(C=C4)F)Cl [VX-11e] + C[C@]1(O)C[C@@H](c2nc(-c3ccc4ccc(-c5ccccc5)nc4c3)c3c(N)nccn32)C1 [Linsitinib] (partner 1 µM)
Procedure, shortened: as §1

VX-11e + Vorinostat = compound: CC1=CN=C(N=C1C2=CNC(=C2)C(=O)N[C@H](CO)C3=CC(=CC=C3)Cl)NC4=C(C=C(C=C4)F)Cl [VX-11e] + O=C(CCCCCCC(=O)Nc1ccccc1)NO [Vorinostat] (partner 1 µM)
Procedure, shortened: as §1

VX-11e + Pemetrexed = compound: CC1=CN=C(N=C1C2=CNC(=C2)C(=O)N[C@H](CO)C3=CC(=CC=C3)Cl)NC4=C(C=C(C=C4)F)Cl [VX-11e] + Nc1nc2[nH]cc(CCc3ccc(C(=O)N[C@@H](CCC(=O)O)C(=O)O)cc3)c2c(=O)[nH]1 [Pemetrexed] (partner 0.2 µM)
Procedure, shortened: as §1

Cell Line | relative viability (VX-11e + Olaparib; first compound 0.04 µM) | relative viability (VX-11e + Olaparib; first compound 0.1265 µM) | relative viability (VX-11e + Olaparib; first compound 0.4 µM) | relative viability (VX-11e + Olaparib; first compound 1.265 µM) | relative viability (VX-11e + Olaparib; first compound 4 µM) | relative viability (VX-11e + Linsitinib; first compound 0.1265 µM) | relative viability (VX-11e + Linsitinib; first compound 0.4 µM) | relative viability (VX-11e + Linsitinib; first compound 4 µM) | relative viability (VX-11e + Vorinostat; first compound 0.04 µM) | relative viability (VX-11e + Vorinostat; first compound 0.1265 µM) | relative viability (VX-11e + Vorinostat; first compound 0.4 µM) | relative viability (VX-11e + Vorinostat; first compound 1.265 µM) | relative viability (VX-11e + Vorinostat; first compound 4 µM) | relative viability (VX-11e + Pemetrexed; first compound 0.04 µM) | relative viability (VX-11e + Pemetrexed; first compound 0.1265 µM) | relative viability (VX-11e + Pemetrexed; first compound 0.4 µM) | relative viability (VX-11e + Pemetrexed; first compound 1.265 µM) | relative viability (VX-11e + Pemetrexed; first compound 4 µM) | relative viability (VX-11e + Linsitinib; first compound 0.04 µM) | relative viability (VX-11e + Linsitinib; first compound 1.265 µM)
NCI-H650 | 0.512 | 0.417 | 0.466 | 0.486 | 0.537 | 0.79 | 0.957 | 0.88 | 0.33 | 0.435 | 0.63 | 0.608 | 0.533 | 0.997 | 0.903 | 0.984 | 1.05 | 1.11 | – | –
NCI-H661 | 0.779 | 0.777 | 0.719 | 0.724 | 0.61 | 0.617 | 0.568 | 0.394 | 0.784 | 0.798 | 0.718 | 0.794 | 0.747 | 0.814 | 0.912 | 0.901 | 0.88 | 0.756 | 0.598 | 0.501
NCI-H838 | 0.785 | 0.802 | 0.702 | 0.738 | 0.671 | 0.933 | 0.96 | 0.79 | 0.774 | 0.669 | 0.681 | 0.639 | 0.591 | 0.236 | 0.235 | 0.239 | 0.229 | 0.217 | 1.06 | 0.887
NCI-H1355 | 0.735 | 0.759 | 0.655 | 0.554 | 0.395 | 0.798 | 0.786 | 0.374 | 0.472 | 0.617 | 0.591 | 0.52 | 0.345 | 0.904 | 0.99 | 0.99 | 1.01 | 0.526 | 0.861 | 0.574
NCI-H1395 | 0.424 | 0.461 | – | 0.499 | 0.388 | 1.29 | 0.846 | 0.718 | 0.573 | 0.683 | – | 0.661 | 0.479 | 0.744 | 0.864 | – | 0.96 | 0.533 | 1.17 | 0.963
NCI-H1437 | 0.621 | 0.619 | 0.653 | 0.529 | 0.476 | 1.05 | 0.888 | 0.203 | 0.82 | 0.864 | 0.82 | 0.739 | 0.458 | 0.331 | 0.274 | 0.296 | 0.257 | 0.219 | 1.03 | 0.409
NCI-H1651 | 0.169 | 0.201 | 0.209 | 0.152 | 0.177 | 1.02 | 0.797 | 0.758 | 0.526 | 0.557 | 0.55 | 0.517 | 0.569 | 0.469 | 0.608 | 0.553 | 0.479 | 0.484 | 1.05 | 0.927
NCI-H1666 | 0.756 | 0.77 | – | 0.742 | 0.649 | 0.81 | 0.594 | 0.42 | 1.08 | 0.953 | – | 0.992 | 0.798 | 0.851 | 0.901 | – | 0.756 | 0.6 | 0.846 | 0.493
